Data published in ChEMBL document CHEMBL2034957, “Synthesis and antitumor evaluation of novel benzo[d]pyrrolo[2,1-b]thiazole derivatives” (Eur J Med Chem, 2012).
Calls of active or inactive are those of the source. No cut-off for these calls is given here.

Legend:
[1] = system: CCRF-CEM; test: Cytotoxicity against human CCRF-CEM cells after 72 hrs by XTT assay; assay type: functional, cell-based
[2] = system: CCRF-CEM; test: Cytotoxicity against human taxol-resistant CCRF-CEM cells after 72 hrs by XTT assay; assay type: functional, cell-based
[3] = system: CCRF-CEM; test: Cytotoxicity against human vinblastine-resistant CCRF-CEM cells after 72 hrs by XTT assay; assay type: functional, cell-based
[4] = system: MX1; test: Cytotoxicity against human MX1 cells after 72 hrs by SRB assay; assay type: functional, cell-based; conditions: MX1, 72 h
[5] = system: HCT-116; test: Cytotoxicity against human HCT116 cells after 72 hrs by SRB assay; assay type: functional, cell-based; conditions: HCT-116, 72 h
[6] = Cytotoxicity against human H1299 cells after 72 hrs by alamar blue assay; assay type: functional, cell-based; conditions: NCI-H1299, 72 h
[7] = system: PC-3; test: Cytotoxicity against human PC3 cells after 72 hrs by alamar blue assay; assay type: functional, cell-based; conditions: PC-3, 72 h
[8] = Cytotoxicity against human OECM1 cells after 72 hrs by alamar blue assay; assay type: functional, cell-based; conditions: OECM1, 72 h
[9] = Cytotoxicity against human U87 cells after 72 hrs by alamar blue assay; assay type: functional, cell-based, U-87MG ATCC; conditions: U-87 MG
[10] = system: MX1; test: Antitumor activity against human MX1 cells xenografted in athymic nude mouse assessed as tumor remission at 20 mg/kg, iv administered q2d for 3 days followed by 25 mg/kg, iv q2d for 5 days measured on day 26 post-tumor implantation; assay type: functional, organism-based
[11] = system: MX1; test: Antitumor activity against human MX1 cells xenografted in athymic nude mouse assessed as tumor remission at 20 mg/kg, iv administered q2d for 3 days followed by 25 mg/kg, iv q2d for 4 days measured on day 26 post-tumor implantation; assay type: functional, organism-based
[12] = system: MX1; test: Antitumor activity against human MX1 cells xenografted in athymic nude mouse assessed as tumor remission at 20 mg/kg, iv administered q2d for 3 days followed by 25 mg/kg, iv q2d for 4 days measured on day 28 post-tumor implantation; assay type: functional, organism-based
[13] = system: Mus musculus; test: Toxicity in athymic nude mouse assessed as weight loss at 20 mg/kg, iv administered q2d for 3 days followed by 25 mg/kg, iv q2d for 5 days; assay type: organism-based; conditions: in vivo
[14] = Cell cycle arrest in human H1299 cells assessed as G2/M phase cells at 4.5 to 9 uM after 24 hrs by propidium iodidee-based flow cytometry; assay type: functional; conditions: NCI-H1299
[15] = Cell cycle arrest in human H1299 cells assessed as reduction in G2/M phase cells at 4.5 to 9 uM after 48 hrs by propidium iodidee-based flow cytometry; assay type: functional; conditions: NCI-H1299
[16] = Cell cycle arrest in human H1299 cells assessed as increase in sub-G1 phase cells at 4.5 to 9 uM after 24 hrs by propidium iodidee-based flow cytometry; assay type: functional; conditions: NCI-H1299
[17] = Cell cycle arrest in human H1299 cells at 18 uM after 24 hrs by propidium iodidee-based flow cytometry; assay type: functional; conditions: NCI-H1299
[18] = Cell cycle arrest in human H1299 cells at 18 uM after 48 hrs by propidium iodidee-based flow cytometry; assay type: functional; conditions: NCI-H1299
[19] = system: Nucleic Acid; test: Induction of Escherichia coli pEGFP-N1 DNA interstrand cross-linking at 1 to 20 uM after 2 hrs using ethidium bromide staining by alkaline agarose gel shift assay; assay type: nucleic-acid assay
[20] = system: CCRF-CEM; test: Ratio of IC50 for human taxol-resistant CCRF-CEM cells to IC50 for human CCRF-CEM cells; assay type: functional
[21] = system: CCRF-CEM; test: Ratio of IC50 for human vinblastine-resistant CCRF-CEM cells to IC50 for human CCRF-CEM cells; assay type: functional
[22] = Toxicity in iv dosed athymic nude mouse assessed as mortality; assay type: organism-based; conditions: in vivo

CC(C)NC(=O)OCc1c(COC(=O)NC(C)C)c2sc3ccccc3n2c1-c1ccc(Cl)cc1
IC50 [1]: 80 nM
IC50 [2]: 390 nM
IC50 [3]: 420 nM
IC50 [4]: 1190 nM
IC50 [5]: 1700 nM
IC50 [6]: 8750 nM
IC50 [7]: 13700 nM
IC50 [8]: 7540 nM
IC50 [9]: 29000 nM
Activity [10]: Active
Activity [11]: Active
Activity [12]: Active
Activity [13]: 10%
Activity [14]: Active
Activity [15]: Active
Activity [16]: Active
Activity [17]: Active
Activity [18]: inactive
Activity [19]: Active
Ratio IC50 [20]: 4.87
Ratio IC50 [21]: 5.25
MTD [22]: 20 mg/kg
